For one data set, the target named is T1, CYP2C9 (Homo sapiens, UniProt P11712).
T1 construct: purchased Invitrogen Corporation
As to the kind of experiment: Vivid CYP2C9 red fluorescent assay. The data set is classed as in vitro ADME. The settings on record: for inhibition at 30 min, 50 µM: human.

Data set [1] concerns the target T2, CYP3A4 (Homo sapiens, UniProt P08684). As to the kind of experiment: Vivid CYP3A4 red fluorescent assay. The settings on record: for inhibition at 30 min, 50 µM: human, recombinant (cDNA-expressed) CYP3A4 BACULOSOMES, probe Vivid red substrate 3 µM. The procedure:
(§1) The inhibition of the catalytic activities of cDNA-expressed human P450 enzymes by ginsenosides was determined using Vivid® P450 screening kits (CYP1A2 blue, CYP2C9 red, CYP2C19 blue, CYP2D6 blue, CYP3A4 green and red) according to the manufacturer's instructions (Invitrogen Corporation; Carlsbad, CA, USA).
(§2) In brief, the assays were carried out in Costar® black-wall 96-well plates with ultra thin clear bottoms (Corning Inc, Corning, NY, USA) in a kinetic assay mode. Stock solutions (10 mM) of ginsenosides in methanol were prepared and diluted to various concentrations (2.5× 100, 50, 10, 5, 1 µM). For each well, 40 µL of solution of test compounds or vehicle was incubated with 50 µL pre-mixture (mixture of BACULOSOMES® reagent, regeneration system and reaction buffer) at 37°C for 20 min. The reaction was initiated by adding 10 µL of a mixture of substrate and NADP^+ per well with a respective concentration of Vivid® substrate (Table 1). The plate was read immediately for fluorescence changes every 0.5 min at 37°C for 30 min using a FlexStation II384 fluorometric plate reader (Molecular Devices, Sunnyvale, CA, USA) with respective excitation and emission wavelengths for each P450 enzyme (Table 1). The final methanol volume in the reaction was less than or equal to 1%.

The next data set addresses CYP2C19 (Homo sapiens, UniProt P33261). Description: Vivid CYP2C19 blue fluorescent assay. The settings on record: for inhibition at 30 min, 50 µM: human. Here is the method: as §1, §2
The next data set addresses T3, CYP1A2 (Homo sapiens, UniProt P05177).
T3 sequence (P05177 1-516): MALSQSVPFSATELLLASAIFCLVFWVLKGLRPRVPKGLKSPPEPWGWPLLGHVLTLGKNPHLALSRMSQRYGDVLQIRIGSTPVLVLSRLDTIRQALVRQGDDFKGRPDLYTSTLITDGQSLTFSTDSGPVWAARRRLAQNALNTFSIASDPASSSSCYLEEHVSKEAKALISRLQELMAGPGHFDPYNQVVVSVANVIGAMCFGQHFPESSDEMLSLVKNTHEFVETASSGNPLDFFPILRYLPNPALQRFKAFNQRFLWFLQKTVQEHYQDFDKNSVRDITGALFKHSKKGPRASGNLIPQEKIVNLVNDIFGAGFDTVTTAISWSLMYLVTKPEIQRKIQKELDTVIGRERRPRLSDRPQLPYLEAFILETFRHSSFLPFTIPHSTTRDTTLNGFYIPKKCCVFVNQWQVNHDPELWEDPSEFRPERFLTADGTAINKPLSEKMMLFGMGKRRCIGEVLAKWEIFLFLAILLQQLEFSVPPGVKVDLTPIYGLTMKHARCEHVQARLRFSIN
Description: Vivid CYP1A2 blue fluorescent assay. The settings on record: for IC50: IC50 CYP1A2 blue, cDNA-expressed enzyme, Vivid blue substrate 3 µM; for inhibition at 30 min, 50 µM: human. The procedure:
as §1, §2

Data set [2] has as its target T2, CYP3A4. As to the kind of experiment: Vivid CYP3A4 green fluorescent assay. Conditions: for inhibition at 30 min, 50 µM: human. The procedure: as §1, §2
In the next data set the target is CYP2D6 (Homo sapiens, UniProt P10635). Description: Vivid CYP2D6 blue fluorescent assay. The settings on record: for inhibition at 30 min, 50 µM: human. The procedure:
as §1, §2

Setting [3] is: cDNA-expressed enzyme, Vivid red substrate 2 µM, maximum concentration 50 µM, read-out: IC50 CYP2C9 red.
The mark [4] stands for this setting: recombinant (cDNA-expressed) CYP2C9 BACULOSOMES, probe Vivid red substrate 2 µM.
[5] abbreviates: recombinant (cDNA-expressed) CYP2C19 BACULOSOMES, probe Vivid blue substrate 10 µM.
[6] abbreviates: recombinant (cDNA-expressed) CYP1A2 BACULOSOMES, probe Vivid blue substrate 3 µM.
The mark [7] stands for this setting: recombinant (cDNA-expressed) CYP2D6 BACULOSOMES, probe Vivid blue substrate 10 µM.
The mark [8] stands for this setting: recombinant (cDNA-expressed) CYP3A4 BACULOSOMES, probe Vivid green substrate 2 µM.

Structures can show the parent of a compound that is named as a salt. Where two headings read alike, the source gives them in different places.

Data on eleven compounds can be found in PMC2442655, “Structure-Activity Relationship and Substrate-Dependent Phenomena in Effects of Ginsenosides on Activities of Drug-Metabolizing P450 Enzymes” (PLoS ONE, 2008).

CYP2C19, sequence (P33261 whole entry): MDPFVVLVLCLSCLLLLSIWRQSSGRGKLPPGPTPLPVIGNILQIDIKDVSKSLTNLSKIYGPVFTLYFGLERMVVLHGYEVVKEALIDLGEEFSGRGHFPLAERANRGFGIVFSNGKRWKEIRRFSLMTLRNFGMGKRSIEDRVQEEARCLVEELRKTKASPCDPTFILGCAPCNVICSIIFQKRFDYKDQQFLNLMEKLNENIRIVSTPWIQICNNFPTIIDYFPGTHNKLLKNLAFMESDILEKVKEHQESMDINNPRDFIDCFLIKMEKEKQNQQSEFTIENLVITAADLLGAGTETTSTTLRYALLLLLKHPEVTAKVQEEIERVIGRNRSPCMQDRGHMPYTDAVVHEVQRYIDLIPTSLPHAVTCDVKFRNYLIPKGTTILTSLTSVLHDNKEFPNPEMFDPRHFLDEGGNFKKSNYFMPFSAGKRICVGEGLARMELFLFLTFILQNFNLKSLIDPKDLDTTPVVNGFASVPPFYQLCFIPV
CYP2D6, sequence (P10635 whole entry): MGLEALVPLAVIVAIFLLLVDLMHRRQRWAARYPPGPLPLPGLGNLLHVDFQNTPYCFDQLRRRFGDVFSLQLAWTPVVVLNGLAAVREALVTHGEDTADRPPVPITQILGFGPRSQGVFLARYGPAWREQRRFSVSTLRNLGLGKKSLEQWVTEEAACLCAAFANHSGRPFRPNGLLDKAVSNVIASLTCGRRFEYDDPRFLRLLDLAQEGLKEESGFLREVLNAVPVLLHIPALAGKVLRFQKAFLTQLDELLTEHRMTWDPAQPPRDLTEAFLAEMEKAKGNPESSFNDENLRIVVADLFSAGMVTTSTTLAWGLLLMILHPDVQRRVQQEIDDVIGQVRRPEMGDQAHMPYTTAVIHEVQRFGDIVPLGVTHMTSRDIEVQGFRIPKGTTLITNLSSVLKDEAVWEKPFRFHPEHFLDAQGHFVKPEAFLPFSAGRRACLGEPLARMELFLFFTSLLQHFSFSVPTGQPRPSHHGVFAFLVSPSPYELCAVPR
T2 sequence (P08684 whole entry): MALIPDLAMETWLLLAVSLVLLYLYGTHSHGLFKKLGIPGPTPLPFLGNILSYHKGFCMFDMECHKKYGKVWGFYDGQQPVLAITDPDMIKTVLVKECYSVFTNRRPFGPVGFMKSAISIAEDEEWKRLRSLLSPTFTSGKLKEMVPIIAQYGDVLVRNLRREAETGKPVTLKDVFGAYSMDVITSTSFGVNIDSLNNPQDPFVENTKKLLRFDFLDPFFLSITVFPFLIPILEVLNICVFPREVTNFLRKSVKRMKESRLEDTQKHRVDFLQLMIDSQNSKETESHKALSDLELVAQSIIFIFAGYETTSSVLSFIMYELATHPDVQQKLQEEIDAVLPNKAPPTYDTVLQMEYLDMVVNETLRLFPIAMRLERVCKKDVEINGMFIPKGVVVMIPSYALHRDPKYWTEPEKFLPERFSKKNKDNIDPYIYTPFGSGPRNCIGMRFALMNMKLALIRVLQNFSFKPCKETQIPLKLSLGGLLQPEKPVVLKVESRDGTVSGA
T1 sequence (P11712 whole entry): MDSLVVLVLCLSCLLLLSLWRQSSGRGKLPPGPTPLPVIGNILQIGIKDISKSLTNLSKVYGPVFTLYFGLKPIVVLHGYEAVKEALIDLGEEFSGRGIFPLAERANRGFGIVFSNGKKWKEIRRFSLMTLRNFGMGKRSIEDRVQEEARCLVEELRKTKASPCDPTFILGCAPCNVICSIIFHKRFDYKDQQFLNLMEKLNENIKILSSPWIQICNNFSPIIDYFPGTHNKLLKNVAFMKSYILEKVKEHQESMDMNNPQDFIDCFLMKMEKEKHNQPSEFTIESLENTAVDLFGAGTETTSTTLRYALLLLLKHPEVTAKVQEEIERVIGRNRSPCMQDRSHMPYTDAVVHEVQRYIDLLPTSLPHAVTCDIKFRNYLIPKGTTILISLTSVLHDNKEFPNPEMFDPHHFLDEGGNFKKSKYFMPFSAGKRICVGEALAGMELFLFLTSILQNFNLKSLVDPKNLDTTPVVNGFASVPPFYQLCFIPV
Description for CYP2C9: In brief, the assays were carried out in Costar® black-wall 96-well plates with ultra thin clear bottoms (Corning Inc, Corning, NY, USA) in a kinetic assay mode. […] For each well, 40 µL of solution of test compounds or vehicle was incubated with 50 µL pre-mixture (mixture of BACULOSOMES® reagent, regeneration system and reaction buffer) at 37°C for 20 min. […] The final methanol volume in the reaction was less than or equal to 1%.

Turning to `CC(C)=CCC[C@](C)(O[C@@H]1O[C@H](CO[C@@H]2OC[C@@H](O)[C@H](O)[C@H]2O)[C@@H](O)[C@H](O)[C@H]1O)[C@H]1CC[C@]2(C)[C@@H]1[C@H](O)C[C@@H]1[C@@]3(C)CC[C@H](O[C@@H]4O[C@H](CO)[C@@H](O)[C@H](O)[C@H]4O[C@@H]4O[C@H](CO)[C@@H](O)[C@H](O)[C@H]4O)C(C)(C)[C@@H]3CC[C@]12C` [Rb3], the half-maximal inhibitory concentration (IC50) at CYP2C9 (setting [3]) was over 50 µM; against CYP3A4 [1] it was 68.8 µM; against CYP2C19, over 100 µM; at CYP1A2, over 100 µM; against CYP3A4 [2] it was 99.7 µM; against CYP2D6 it was over 50 µM. The inhibition at 30 min, 50 µM turned out to be 17.6% at CYP2C9 (setting [4]), 5% on CYP2C19 (setting [5]), 31.3% on CYP1A2 (setting [6]) and 49.4% on CYP2D6 (setting [7]).
Consider `CC(C)=CCC[C@](C)(O[C@@H]1O[C@H](CO[C@@H]2O[C@H](CO)[C@@H](O)[C@H](O)[C@H]2O)[C@@H](O)[C@H](O)[C@H]1O)[C@H]1CC[C@]2(C)[C@@H]1[C@H](O)C[C@@H]1[C@@]3(C)CC[C@H](O[C@@H]4O[C@H](CO)[C@@H](O)[C@H](O)[C@H]4O[C@@H]4O[C@H](CO)[C@@H](O)[C@H](O)[C@H]4O)C(C)(C)[C@@H]3CC[C@]12C` [Rb1], for which the IC50 was over 50 µM on CYP2C9 (setting [3]); over 100 µM at CYP3A4 [1]; over 100 µM on CYP2C19; 37.8 µM against CYP1A2; over 100 µM on CYP3A4 [2]; over 50 µM at CYP2D6. Moreover, the inhibition at 30 min, 50 µM came out at 25.2% at CYP2C9 (setting [4]); 4.4% on CYP3A4 [1]; 20.6% on CYP2C19 (setting [5]); 10.1% at CYP3A4 [2] (setting [8]); 29.1% on CYP2D6 (setting [7]).
As to `CC(C)=CCC[C@](C)(O)[C@H]1CC[C@]2(C)[C@@H]1[C@H](O)C[C@@H]1[C@@]3(C)CC[C@H](O)C(C)(C)[C@@H]3[C@@H](O[C@@H]3O[C@H](CO)[C@@H](O)[C@H](O)[C@H]3O[C@@H]3O[C@@H](C)[C@H](O)[C@@H](O)[C@H]3O)C[C@]12C` [Rg2], the IC50 against CYP2C9 is over 50 µM; at CYP3A4 [1] it was 47 µM; against CYP2C19, over 100 µM; on CYP1A2, over 100 µM; against CYP3A4 [2], over 100 µM; at CYP2D6, over 50 µM. The inhibition at 30 min, 50 µM was found to be 20.1% against CYP2C9; 14.8% at CYP2C19; 29.2% at CYP1A2; 19.4% against CYP3A4 [2]; 37.2% against CYP2D6.
For the compound `CC(C)=CCC[C@](C)(O[C@@H]1O[C@H](CO)[C@@H](O)[C@H](O)[C@H]1O)[C@H]1CC[C@]2(C)[C@@H]1[C@H](O)C[C@@H]1[C@@]3(C)CC[C@H](O)C(C)(C)[C@@H]3CC[C@]12C` [C-K, ginsenoside Compound K], the IC50 at CYP2C9 (setting [3]) is 9.1 µM; on CYP3A4 [1] it was 9.1 µM; on CYP2C19, 45.9 µM; against CYP1A2, 23.8 µM; against CYP3A4 [2], 30.5 µM; against CYP2D6, over 50 µM. At CYP2D6 (setting [7]), the inhibition at 30 min, 50 µM amounted to 49.4%.
With `CC(C)=CCC[C@](C)(O)[C@H]1CC[C@]2(C)[C@@H]1[C@H](O)C[C@@H]1[C@@]3(C)CC[C@H](O[C@@H]4O[C@H](CO)[C@@H](O)[C@H](O)[C@H]4O[C@@H]4O[C@H](CO)[C@@H](O)[C@H](O)[C@H]4O)C(C)(C)[C@@H]3CC[C@]12C` [Rg3], the IC50 on CYP2C9 (setting [3]) came to 18.5 µM; against CYP3A4 [1] it was 25.2 µM; against CYP2C19, 47 µM; at CYP1A2, 32.4 µM; at CYP3A4 [2], 86.4 µM; on CYP2D6 it was 9.3 µM.
On to `CC(C)=CCC[C@](C)(O)[C@H]1CC[C@]2(C)[C@@H]1[C@H](O)C[C@@H]1[C@@]3(C)CC[C@H](O)C(C)(C)[C@@H]3[C@@H](O)C[C@]12C` [PPT, protopanaxatriol], for which the IC50 on CYP2C9 (setting [3]) is 31.6 µM; against CYP3A4 [1], over 100 µM; at CYP2C19, 46.9 µM; on CYP1A2, over 100 µM; at CYP3A4 [2], 7.4 µM; against CYP2D6, over 50 µM. Further, the figures for the inhibition at 30 min, 50 µM at CYP3A4 [1], at CYP1A2 (setting [6]) and at CYP2D6 (setting [7]) were 39.4%, 13.1% and 18.9%, respectively.
As for `CC(C)=CCC[C@](C)(O[C@@H]1O[C@H](CO)[C@@H](O)[C@H](O)[C@H]1O)[C@H]1CC[C@]2(C)[C@@H]1[C@H](O)C[C@@H]1[C@@]3(C)CC[C@H](O)C(C)(C)[C@@H]3[C@@H](O[C@@H]3O[C@H](CO)[C@@H](O)[C@H](O)[C@H]3O)C[C@]12C` [Rg1], the 50% inhibitory concentration (IC50) at CYP2C9 (setting [3]) was over 50 µM; on CYP3A4 [1], over 100 µM; on CYP2C19, over 100 µM; on CYP1A2, over 100 µM; against CYP3A4 [2] it was over 100 µM; on CYP2D6, over 50 µM. For the same compound, the inhibition at 30 min, 50 µM stood at 21.7% at CYP2C9 (setting [4]); 16.9% on CYP3A4 [1]; 11.7% at CYP2C19 (setting [5]); 30.2% at CYP1A2 (setting [6]); 8.1% at CYP3A4 [2] (setting [8]); 17.7% on CYP2D6 (setting [7]).
As to `CC(C)(O)CCC[C@@](C)(O)[C@H]1CC[C@]2(C)[C@@H]1[C@H](O)C[C@@H]1[C@@]3(C)CC[C@H](O)C(C)(C)[C@@H]3[C@@H](O)C[C@]12C` [20(R)-25-OH-PPT], the IC50 at CYP2C9 (setting [3]) was 8.5 µM; on CYP2C19, 43.9 µM; against CYP1A2, over 100 µM; against CYP3A4 [2], 27.2 µM; on CYP2D6, over 50 µM. Moreover, on CYP3A4 [1] (red substrate), the “Effect on CYP3A4 catalytic activity, Vivid red assay” value is given as “activated the catalytic activity of CYP3A4”. The inhibition at 30 min, 50 µM amounted to 16.9% at CYP1A2 (setting [6]) and 10% at CYP2D6 (setting [7]).
On to `CC(C)=CCC[C@](C)(O[C@@H]1O[C@H](CO)[C@@H](O)[C@H](O)[C@H]1O)[C@H]1CC[C@]2(C)[C@@H]1[C@H](O)C[C@@H]1[C@@]3(C)CC[C@H](O)C(C)(C)[C@@H]3[C@@H](O[C@@H]3O[C@H](CO)[C@@H](O)[C@H](O)[C@H]3O[C@@H]3O[C@@H](C)[C@H](O)[C@@H](O)[C@H]3O)C[C@]12C` [Re], for which the IC50 is over 50 µM at CYP2C9 (setting [3]); 66.1 µM against CYP3A4 [1]; over 100 µM against CYP2C19; over 100 µM against CYP1A2; over 100 µM against CYP3A4 [2]; over 50 µM against CYP2D6. Also, the inhibition at 30 min, 50 µM was found to be 38% at CYP2C9 (setting [4]); 8.8% on CYP2C19 (setting [5]); 28.1% on CYP1A2 (setting [6]); 4.3% on CYP3A4 [2] (setting [8]); 44.2% on CYP2D6 (setting [7]).
`Clc1ccc(COC(Cn2ccnc2)c2ccc(Cl)cc2Cl)c(Cl)c1` (stereo not shown) [miconazole nitrate salt, reference compound]: the IC50 at CYP2C19 (read-out: IC50 CYP2C19 blue, cDNA-expressed enzyme, Vivid blue substrate 10 µM) turned out to be 0.25 µM.
In the case of `CC(C)=CCC[C@@](C)(O)[C@H]1CC[C@]2(C)[C@@H]1[C@H](O)C[C@@H]1[C@@]3(C)CC[C@H](O)C(C)(C)[C@@H]3CC[C@]12C` [20(R)-PPD], the IC50 was 6.7 µM at CYP2C9 (setting [3]); 58.6 µM against CYP3A4 [1]; 19.2 µM against CYP2C19; over 100 µM against CYP1A2; 10.3 µM against CYP3A4 [2]; over 50 µM against CYP2D6. The results for the inhibition at 30 min, 50 µM on CYP1A2 (setting [6]) and on CYP2D6 (setting [7]) were 17.1% and 34.9%, respectively.

A word on the IC50: it is the concentration needed to halve the response being measured. A word on the inhibition: it is the percentage by which the read-out fell short of the control.
